Experimental data published in patent US10647747B2, “Cyclosporin derivatives and uses thereof” (S&T Global Inc., priority 2010, dated 2020).
Like-named read-outs stand apart in the source and are kept apart here. Each block holds one compound with its values, some of them ahead of it. *1 amine or outer side, *2 acyl side, *3 side chain or, on linkers, in order; H or OH if unused. Where a SMILES comes first, the peptide text is derived from it. [ ]: non-standard residue; d: D form. MeBmt = C/C=C/C[C@@H](C)[C@@H](O)[C@H](NC)C(=O)O; X1 = CN([C@H](SCCCN1CCOCC1)C(=O)[*:2])[*:1]; X3 = CC=CCC(C)C(O)C(C(=O)[*:2])N(C)[*:1]; X5 = CSCOC(C)(C)CC(C(=O)[*:2])N(C)[*:1]; X4 = CCN(CC)CCSC(C(=O)[*:2])N(C)[*:1]; NMeL = CN[CH](CC(C)C)C(=O)O; NMeV = CN[CH](C(=O)O)C(C)C; Abu = CC[CH](N)C(=O)O

How the values were obtained:
[1] = test system: rat neuronal mitochondria; assay: Mitochondrial swelling assay (inhibition of mitochondrial permeability transition, MPT); format: biochemical; conditions: compound 100 nM added 5 minutes before Ca2+; swelling induced by 100 micromolar calcium chloride; absorbance 620nm; control 100
[2] = test system: HIV-1IIIB in CEM-SS cells; assay: Anti-HIV cytoprotection assay, acute infection model, MTS endpoint; format: cell-based; conditions: Table 17, HIV-1IIIB in CEM-SS cells, 6-day incubation, read-out: Antiviral activity EC50
Method: Anti-HIV activity of cyclosporine derivatives were evaluated by cytoprotection assay in an acute infection model using CEM-SS cells and either HIV-1IIIB or HIV-1 RF. Antiviral activity was determined as a reduction in virus-caused cytopathic effects when compounds prevent virus replication. Cytoprotection and compound cytotoxicity were evaluated using the tetrazollium dye MTS (Promega) to calculate cell viability following virus infection after 6-day incubation (Zhou G., et al., 2011, J. Med. Chem. 27, 7220-31; which is incorporated herein by reference).

[3] = test system: HCV replicon in cell line ET (luc-ubi-neo/ET), Huh7 human hepatoma; assay: HCV subgenomic replicon assay, luciferase end point; format: cell-based; conditions: Hepatitis C virus, read-out: Antiviral activity EC50
[4] = Stability testing: epimerization of cyclosporin derivatives in methanol, monitored by HPLC; format: physicochemical; conditions: for Epimerization %: Table 10, MeOH at 50° C.
[5] = Human immunodeficiency virus 1, 144 h

SMILES: CC=CCC(C)C(O)C1C(=O)NC(CC)C(=O)N(C)C(SCCN(CC)CC)C(=O)N(C)C(CC(C)(C)OCSC)C(=O)NC(C(C)C)C(=O)N(C)C(CC(C)C)C(=O)NC(C)C(=O)NC(C)C(=O)N(C)C(CC(C)C)C(=O)N(C)C(CC(C)C)C(=O)N(C)C(C(C)C)C(=O)N1C (centres unmarked) (cyclo([X3][Abu][X4][X5]V[NMeL]AA[NMeL][NMeL][NMeV]); configuration not given here)
Mitochondrial Swelling Relative % [1]: 52.4%

SMILES: C/C=C/C[C@@H](C)[C@@H](O)[C@H]1C(=O)N[C@@H](CC)C(=O)N(C)[C@H](CSCCN(C)C)C(=O)N(C)[C@@H](CC(C)(C)O)C(=O)N[C@@H](C(C)C)C(=O)N(C)[C@@H](CC(C)C)C(=O)N[C@@H](C)C(=O)N[C@H](C)C(=O)N(C)[C@@H](CC(C)C)C(=O)N(C)[C@@H](CC(C)C)C(=O)N(C)[C@@H](C(C)C)C(=O)N1C (single isomer, unassigned)
EC50 [2, 5]: 118 nM

SMILES: C/C=C/C[C@@H](C)[C@@H](O)[C@H]1C(=O)N[C@@H](CC)C(=O)N(C)[C@H](CSCCN(CC)CC)C(=O)N(C)[C@@H](CC(C)(C)O)C(=O)N[C@@H](C(C)C)C(=O)N(C)[C@@H](CC(C)C)C(=O)N[C@@H](C)C(=O)N[C@H](C)C(=O)N(C)[C@@H](CC(C)C)C(=O)N(C)[C@@H](CC(C)C)C(=O)N(C)[C@@H](C(C)C)C(=O)N1C
Mitochondrial Swelling Relative % [1]: 55.7%

SMILES: C/C=C/C[C@@H](C)[C@@H](O)[C@H]1C(=O)N[C@@H](CC)C(=O)N(C)[C@H](CSCCN2CCOCC2)C(=O)N(C)[C@@H](CC(C)(C)O)C(=O)N[C@@H](C(C)C)C(=O)N(C)[C@@H](CC(C)C)C(=O)N[C@@H](C)C(=O)N[C@H](C)C(=O)N(C)[C@@H](CC(C)C)C(=O)N(C)[C@@H](CC(C)C)C(=O)N(C)[C@@H](C(C)C)C(=O)N1C [[(S)-(2-(N-Morpholino)ethylthio)methyl-Sar]-3-[(γ-hydroxy)-N-MeLeu]-4-cyclosporin]
EC50 [2, 5]: 94.9 nM
EC50 ([3]; Huh-7, HCV subgenomic replicon, cell line ET (luc-ubi-neo/ET) Huh7, luciferase end point): 60 nM
EC50 ([3]; Huh-7, Table 14, HCV replicon luciferase): 20 nM

EC50 [2]: 9 nM
SMILES: Cc1cn([C@H]2C[C@H](N=[N+]=[N-])[C@@H](CO)O2)c(=O)[nH]c1=O [AZT]

SMILES: C/C=C/C[C@@H](C)[C@@H](O)[C@H]1C(=O)N[C@@H](CC)C(=O)N(C)[C@H](COCCN(C)C)C(=O)N(C)[C@@H](CC(C)C)C(=O)N[C@@H](C(C)C)C(=O)N(C)[C@@H](CC(C)C)C(=O)N[C@@H](C)C(=O)N[C@H](C)C(=O)N(C)[C@@H](CC(C)C)C(=O)N(C)[C@@H](CC(C)C)C(=O)N(C)[C@@H](C(C)C)C(=O)N1C
Epimerization % after 168 hours ([4]; Table 11, MeOH at 50° C.-58° C., 168 hours): 0%

Epimerization % ([4]; 29 hours): 0%
Epimerization % ([4]; 77 hours): 0%
Epimerization % ([4]; 125 hours): 0%
SMILES: C/C=C/C[C@@H](C)[C@@H](O)[C@H]1C(=O)N[C@@H](CC)C(=O)N(C)[C@H](SCCCN2CCOCC2)C(=O)N(C)[C@@H](CC(C)(C)OC)C(=O)N[C@@H](C(C)C)C(=O)N(C)[C@@H](CC(C)C)C(=O)N[C@@H](C)C(=O)N[C@H](C)C(=O)N(C)[C@@H](CC(C)C)C(=O)N(C)[C@@H](CC(C)C)C(=O)N(C)[C@@H](C(C)C)C(=O)N1C [drawing 1937]

Epimerization % ([4]; 29 hours): 0%
Epimerization % ([4]; 77 hours): 0%
Epimerization % ([4]; 125 hours): 0%
SMILES: C/C=C/C[C@@H](C)[C@@H](O)[C@H]1C(=O)N[C@@H](CC)C(=O)N(C)[C@H](SCCCN2CCOCC2)C(=O)N(C)[C@@H](C(C)C)C(=O)N[C@@H](C(C)C)C(=O)N(C)[C@@H](CC(C)C)C(=O)N[C@@H](C)C(=O)N[C@H](C)C(=O)N(C)[C@@H](CC(C)C)C(=O)N(C)[C@@H](CC(C)C)C(=O)N(C)[C@@H](C(C)C)C(=O)N1C (cyclo(A[dA][NMeL][NMeL][NMeV][MeBmt][Abu][X1][NMeV]V[NMeL]))
